13 compounds from PubChem BioAssay AID194 (DTP/NCI, 2004) can be followed below.

This assay concerns BDF1 mice, B16 melanoma s.c., survival/tumor T/C. Nature of the assay: NCI In Vivo Anticancer Drug Screen. Data for tumor model B16 Melanoma (subcutaneous) in B6D2F1 (BDF1) mice. The procedure:
The antitumor activity of compounds was measured in mice bearing transplantable tumors. Survival or tumor size were measured and the results are expressed as the measurement made in the treated group (T) divided by the measurement made in the vehicle treated control group (C). The tumor model used in this assay is B16 Melanoma (subcutaneous) in B6D2F1 (BDF1) mice

“And” between values parts separate entries of the source, which are not always exact repeats. Identical values can stand only once. Inconclusive results are not listed.

In the case of `CN(Cc1cnc2nc(N)nc(N)c2n1)c1ccc(C(=O)N[C@@H](CCC(=O)O)C(=O)O)cc1`, the T/C is, setting by setting: (endpoint: median survival time, dose: 0.5 mg/kg/injection, schedule: Q01DX009 (ip), vehicle: saline with Tween-80, higher = longer survival) 100 % of control; (endpoint: median survival time, dose: 1.0 mg/kg/injection, schedule: Q01DX009 (ip), vehicle: saline with Tween-80, higher = longer survival) 100 % of control; (endpoint: median survival time, dose: 2.0 mg/kg/injection, schedule: Q01DX009 (ip), vehicle: saline with Tween-80, higher = longer survival) 89 % of control; (endpoint: median tumor weight (est.), dose: 0.5 mg/kg/injection, schedule: Q01DX009 (ip), vehicle: saline with Tween-80, higher = larger tumour) 173 % of control; (endpoint: median tumor weight (est.), dose: 1.0 mg/kg/injection, schedule: Q01DX009 (ip), vehicle: saline with Tween-80, higher = larger tumour) 81 % of control.

As for `CCC(c1ccc(OC(=O)Cc2ccc(N(CCCl)CCCl)cc2)cc1)C(CC)c1ccc(OC(=O)Cc2ccc(N(CCCl)CCCl)cc2)cc1` (configuration not stated), the T/C is 102 % of control (endpoint: median survival time, dose: 80.0 mg/kg/injection, schedule: Q01DX009 (ip), vehicle: saline with Tween-80, higher = longer survival); 106 % of control (endpoint: median survival time, dose: 120.0 mg/kg/injection, schedule: Q01DX009 (ip), vehicle: saline with Tween-80, higher = longer survival); 93 % of control (endpoint: median survival time, dose: 180.0 mg/kg/injection, schedule: Q01DX009 (ip), vehicle: saline with Tween-80, higher = longer survival); 102 % of control (endpoint: median survival time, dose: 270.0 mg/kg/injection, schedule: Q01DX009 (ip), vehicle: saline with Tween-80, higher = longer survival); 90 % of control (endpoint: median survival time, dose: 405.0 mg/kg/injection, schedule: Q01DX009 (ip), vehicle: saline with Tween-80, higher = longer survival).

As to `O=C1NC2(CCCCC2)C(=O)N1CCN(CCCl)CCCl`, the T/C is 106 % of control (endpoint: median survival time, dose: 1.5 mg/kg/injection, schedule: Q01DX009 (ip), vehicle: saline with Tween-80, higher = longer survival); 96 % of control (endpoint: median survival time, dose: 3.0 mg/kg/injection, schedule: Q01DX009 (ip), vehicle: saline with Tween-80, higher = longer survival); 118 % of control (endpoint: median survival time, dose: 6.0 mg/kg/injection, schedule: Q01DX009 (ip), vehicle: saline with Tween-80, higher = longer survival).

For `O=C(O)CC(NC(=O)CP(=O)(O)O)C(=O)O` (configuration not stated), the T/C (endpoint: median survival time, dose: 153.0 mg/kg/injection, schedule: Q01DX009 (ip), vehicle: saline, higher = longer survival) is 110 % of control and the T/C (endpoint: median survival time, dose: 1140.0 mg/kg/injection, schedule: Q01DX001 (ip), vehicle: saline, higher = longer survival) is 114 % of control.

With `O=NN(CCCl)C(=O)NC1[C@H](O)CCC[C@@H]1O` (some centres not stated), the T/C is 95 % of control (endpoint: median survival time, dose: 1.56 mg/kg/injection, schedule: Q01DX007 (ip), vehicle: water, higher = longer survival); 108 % of control (endpoint: median survival time, dose: 2.59 mg/kg/injection, schedule: Q01DX007 (ip), vehicle: water, higher = longer survival); 114 % of control (endpoint: median survival time, dose: 4.32 mg/kg/injection, schedule: Q01DX007 (ip), vehicle: water, higher = longer survival).

Turning to `CC1(C)N=C(N)N=C(N)N1c1ccc(CNC(=O)Nc2cccc(S(=O)(=O)F)c2)cc1`, the T/C is 100 % of control (endpoint: median survival time, dose: 100.0 mg/kg/injection, schedule: Q04DX003 (ip), vehicle: saline, higher = longer survival) and 122 % of control (endpoint: median survival time, dose: 225.0 mg/kg/injection, schedule: Q04DX003 (ip), vehicle: saline, higher = longer survival).

Take `CN(N=O)C(N)=O`: the T/C runs as follows: (endpoint: median survival time, dose: 3.12 mg/kg/injection, schedule: Q01DX009 (ip), vehicle: saline, higher = longer survival) 97 % of control; (endpoint: median survival time, dose: 6.25 mg/kg/injection, schedule: Q01DX009 (ip), vehicle: saline, higher = longer survival) 105 % of control; (endpoint: median survival time, dose: 12.5 mg/kg/injection, schedule: Q01DX009 (ip), vehicle: saline, higher = longer survival) 109 % of control.

`O=P(O)(NCCCl)NCCCl`: the T/C runs as follows: (endpoint: median survival time, dose: 50.0 mg/kg/injection, schedule: Q01DX001 (ip), vehicle: saline, higher = longer survival) 98 % of control; (endpoint: median survival time, dose: 150.0 mg/kg/injection, schedule: Q01DX001 (ip), vehicle: saline, higher = longer survival) 162 % of control.

`CC[C@]1(O)C[C@H]2CN(CCc3c([nH]c4ccccc34)[C@@](C(=O)OC)(c3cc4c(cc3OC)N(C=O)[C@H]3[C@@](O)(C(=O)OC)[C@H](OC(C)=O)[C@]5(CC)C=CCN6CC[C@]43[C@@H]65)C2)C1`: the T/C by setting is: (endpoint: median survival time, dose: 0.06 mg/kg/injection, schedule: Q01DX009 (ip), vehicle: saline, higher = longer survival) 100 % of control and 115 % of control; (endpoint: median survival time, dose: 0.12 mg/kg/injection, schedule: Q01DX009 (ip), vehicle: saline, higher = longer survival) 104 % of control and 121 % of control; (endpoint: median survival time, dose: 0.13 mg/kg/injection, schedule: Q01DX009 (ip), vehicle: saline, higher = longer survival) 100 % of control; (endpoint: median survival time, dose: 0.7 mg/kg/injection, schedule: Q04DX003 (ip), vehicle: saline, higher = longer survival) 93 % of control; (endpoint: median survival time, dose: 1.0 mg/kg/injection, schedule: Q04DX003 (ip), vehicle: saline, higher = longer survival) 100 % of control; (endpoint: median survival time, dose: 1.5 mg/kg/injection, schedule: Q04DX003 (ip), vehicle: saline, higher = longer survival) 113 % of control.

Take `O=c1[nH]c(=O)n([C@H]2CCCO2)cc1F`: the T/C is 101 % of control (endpoint: median survival time, dose: 23.0 mg/kg/injection, schedule: Q01DX009 (ip), vehicle: saline, higher = longer survival); 100 % of control (endpoint: median survival time, dose: 39.0 mg/kg/injection, schedule: Q01DX009 (ip), vehicle: saline, higher = longer survival); 100 % of control (endpoint: median survival time, dose: 65.0 mg/kg/injection, schedule: Q01DX009 (ip), vehicle: saline, higher = longer survival); 118 % of control (endpoint: median survival time, dose: 108.0 mg/kg/injection, schedule: Q04DX003 (ip), vehicle: saline, higher = longer survival); 107 % of control (endpoint: median survival time, dose: 180.0 mg/kg/injection, schedule: Q04DX003 (ip), vehicle: saline, higher = longer survival).

Take `C[n+]1c(/C=C\C=C\N2CCCCC2)sc2ccccc21`: the T/C runs as follows: (endpoint: median survival time, dose: 0.01 mg/kg/injection, schedule: Q01DX009 (ip), vehicle: Klucel (hydroxypropylcellulose) (HPC), higher = longer survival) 188 % of control; (endpoint: median survival time, dose: 0.02 mg/kg/injection, schedule: Q01DX009 (ip), vehicle: Klucel (hydroxypropylcellulose) (HPC), higher = longer survival) 170 % of control; (endpoint: median survival time, dose: 0.05 mg/kg/injection, schedule: Q01DX009 (ip), vehicle: Klucel (hydroxypropylcellulose) (HPC), higher = longer survival) 160 % of control; (endpoint: median survival time, dose: 0.1 mg/kg/injection, schedule: Q01DX009 (ip), vehicle: Klucel (hydroxypropylcellulose) (HPC), higher = longer survival) 171 % of control; (endpoint: median survival time, dose: 0.4 mg/kg/injection, schedule: Q01DX009 (ip), vehicle: Klucel (hydroxypropylcellulose) (HPC), higher = longer survival) 121 % of control.

As to `O=c1cnn(C2OC(CO)C(O)C2O)c(=O)[nH]1` (configuration not stated), the T/C was 117 % of control (endpoint: median survival time, dose: 75.0 mg/kg/injection, schedule: Q01DX009 (ip), vehicle: saline, higher = longer survival); 104 % of control (endpoint: median survival time, dose: 150.0 mg/kg/injection, schedule: Q01DX009 (ip), vehicle: saline, higher = longer survival); 90 % of control (endpoint: median survival time, dose: 300.0 mg/kg/injection, schedule: Q01DX009 (ip), vehicle: saline, higher = longer survival); 101 % of control (endpoint: median survival time, dose: 600.0 mg/kg/injection, schedule: Q01DX009 (ip), vehicle: saline, higher = longer survival).

Take `CC(=O)O[C@H]1C(=O)[C@@]2(C)[C@H]([C@H](OC(=O)c3ccccc3)[C@]3(O)C[C@H](OC(=O)[C@H](O)[C@@H](NC(=O)c4ccccc4)c4ccccc4)C(C)=C1C3(C)C)[C@]1(OC(C)=O)CO[C@@H]1C[C@@H]2O`: the T/C was 91 % of control (endpoint: median survival time, dose: 1.32 mg/kg/injection, schedule: Q01DX009 (ip), vehicle: Klucel (hydroxypropylcellulose) (HPC), higher = longer survival); 100 % of control (endpoint: median survival time, dose: 1.32 mg/kg/injection, schedule: Q01DX009 (ip), vehicle: other, higher = longer survival); 95 % of control (endpoint: median survival time, dose: 1.98 mg/kg/injection, schedule: Q01DX009 (ip), vehicle: Klucel (hydroxypropylcellulose) (HPC), higher = longer survival); 88 % of control (endpoint: median survival time, dose: 1.98 mg/kg/injection, schedule: Q01DX009 (ip), vehicle: other, higher = longer survival); 116 % of control (endpoint: median survival time, dose: 2.96 mg/kg/injection, schedule: Q01DX009 (ip), vehicle: Klucel (hydroxypropylcellulose) (HPC), higher = longer survival); 88 % of control (endpoint: median survival time, dose: 2.96 mg/kg/injection, schedule: Q01DX009 (ip), vehicle: other, higher = longer survival). Further, the T/C by setting is: (endpoint: median survival time, dose: 4.0 mg/kg/injection, schedule: Q01DX009 (ip), vehicle: Klucel (hydroxypropylcellulose) (HPC), higher = longer survival) 93 % of control; (endpoint: median survival time, dose: 4.44 mg/kg/injection, schedule: Q01DX009 (ip), vehicle: other, higher = longer survival) 123 % of control; (endpoint: median survival time, dose: 6.0 mg/kg/injection, schedule: Q01DX009 (ip), vehicle: Klucel (hydroxypropylcellulose) (HPC), higher = longer survival) 97 % of control; (endpoint: median survival time, dose: 6.67 mg/kg/injection, schedule: Q01DX009 (ip), vehicle: Klucel (hydroxypropylcellulose) (HPC), higher = longer survival) 117 % of control; (endpoint: median survival time, dose: 9.0 mg/kg/injection, schedule: Q01DX009 (ip), vehicle: Klucel (hydroxypropylcellulose) (HPC), higher = longer survival) 93 % of control; (endpoint: median survival time, dose: 11.0 mg/kg/injection, schedule: Q04DX003 (ip), vehicle: Klucel (hydroxypropylcellulose) (HPC), higher = longer survival) 102 % of control. In addition, the T/C is, setting by setting: (endpoint: median survival time, dose: 13.0 mg/kg/injection, schedule: Q01DX001 (ip), vehicle: Klucel (hydroxypropylcellulose) (HPC), higher = longer survival) 97 % of control; (endpoint: median survival time, dose: 16.0 mg/kg/injection, schedule: Q04DX003 (ip), vehicle: Klucel (hydroxypropylcellulose) (HPC), higher = longer survival) 91 % of control; (endpoint: median survival time, dose: 20.0 mg/kg/injection, schedule: Q01DX001 (ip), vehicle: Klucel (hydroxypropylcellulose) (HPC), higher = longer survival) 122 % of control; (endpoint: median survival time, dose: 24.0 mg/kg/injection, schedule: Q04DX003 (ip), vehicle: Klucel (hydroxypropylcellulose) (HPC), higher = longer survival) 93 % of control; (endpoint: median survival time, dose: 30.0 mg/kg/injection, schedule: Q01DX001 (ip), vehicle: Klucel (hydroxypropylcellulose) (HPC), higher = longer survival) 106 % of control.
